Results taken from patent US10294248B2, “Beta-lactamase inhibitors” (VenatoRx Pharmaceuticals, Inc., priority 2013, dated 2019).

Legend:
[1] = molecular target: T1, SHV-5 β-lactamase (Class A ESBL) (Klebsiella pneumoniae, UniProt P0A3M1); experiment: β-Lactamase inhibition, SHV-5; type: biochemical
T1 construct: made in house; host or cells: E. coli BL21(DE3)
Protocol: (§1) For SHV-5, Kpc-2, p99AmpC and OXA-1 β-lactamases, E. coli BL21(DE3) bacterial cells carrying expression plasmids (expressed as native untagged proteins) for the individual β-lactamases were grown in 1 L of Superbroth (Teknova Inc. Hollister, Calif.) supplemented with 100 μg/ml kanamycin selection and 1×5052 (0.5% glycerol, 0.05% glucose and 0.2% α-lactose) at 35° C. for 18-20 hours. Cells were harvested by centrifugation (4,000×g, 4° C., 20 min), resuspended in 50 ml of 10 mM HEPES pH 7.5 ( 1/20 of the initial volume). The cells were lysed by sonication (5 pulses of 45 seconds) at 45 W on ice. The lysates were clarified by centrifugation at 10,000×g for 40 minutes at 4° C. Samples were diluted 5-fold in 50 mM sodium acetate pH 5.0, stored overnight at 4° C., after which they were centrifuged at 10,000×g for 30 minutes to clarify, and filtered through 0.45 μm filters. The samples were loaded onto a 5 ml Capto S sepharose cation exchange column (GE Healthcare) pre-equilibrated with 50 mM sodium acetate pH 5.0. The column was washed with 5 column volumes of 50 mM sodium acetate pH 5.0 to wash out unbound protein and a linear gradient of NaCl (0 to 500 mM) was used to elute the protein (over 16 CV) from the column. Fractions were assayed for β-lactamase activity using Centa (Calbiochem, Gibbstown, N.J.) or Nitrocefin (EMD Millipore chemicals, Darmstadt, Germany) as a reporter β-lactamase substrate for activity in the isolated fractions. Active fractions were pooled, concentrated and further purified by gel filtration chromatography on a Superdex 75 prep grade gel filtration column (GE Healthcare, Piscataway, N.J.) pre-equilibrated in 50 mM Hepes pH 7.5, 150 mM NaCl. Active fractions were pooled concentrated, quantitated by BCA protein determination (Thermo Scientific, Rockford, Ill.), dialyzed into PBS and frozen at −80° C. in 20% glycerol until use.
(§2) An equal volume of diluted enzyme stock was added, and the plates were incubated at 37° C. for 15 min. Nitrocefin was used as substrate for p99 AmpC, VIM-2 and OXA-1 and dispensed into each well at a final concentration of 100 μM. Absorbance at 486 nm was immediately monitored for 10 min using a Biotek Powerwave XS2 microplate spectrophotometer using the GEN5 software package (Biotek Instruments, Winooski Vt.). In an analogous fashion, imipenem was used as substrate for Kpc-2 and Cefotaxime was used for SHV-5, while changes in absorbance upon hydrolysis of the β-lactam ring were monitored at 300 nm and 260 nm respectively in UV-transparent 96-well microtiter assay plates. Maximum rates of hydrolysis were compared to those in control wells (without inhibitors), and percentages of enzyme inhibition were calculated for each concentration of inhibitor. The concentration of inhibitor needed to reduce the initial rate of hydrolysis of substrate by 50% (IC50) was calculated as the residual activity of β-lactamase at 486 nm using GraFit version 7 kinetics software package (Erithacus Software, Surrey, UK).
(§3) Using the methodology described above, examples of the current invention were evaluated for their ability to inhibit β-lactamase enzymes from all four Ambler classifications (A through D). […] NT=Not tested.

[2] = molecular target: T2, KPC-2 β-lactamase (Class A carbapenemase) (Klebsiella pneumoniae, UniProt Q9F663); experiment: β-Lactamase inhibition, KPC-2; type: biochemical; conditions: imipenem substrate, 300 nm; 15 min preincubation at 37° C., PBS pH 7.4
T2 construct: made in house; host or cells: E. coli BL21(DE3)
Protocol: as §1, §2, §3

[3] = tested on: S. aureus MSSA-7 producing penicillinase PC-1; experiment: Broth microdilution MIC, S. aureus MSSA-7 PC-1; type: cell-based; conditions: fixed 4 μg/mL piperacillin; CAMHB, 16-20 hours at 37° C.
Source text: (§4) To determine the ability of test compounds to potentiate the inhibition of the growth of bacterial strains that produce beta-lactamase enzymes, classic cell based broth microdilution MIC assays were employed. Six bacteria strains producing beta-lactamase enzymes were used: E. coli expressing the Class A Extended Spectrum Beta-Lactamase (ESBL) CTX-M-15, E. cloacae expressing the Class C P99, K. pneumoniae expressing the Class A carbapenemase KPC-3, P. aeruginosa expressing the Class B carbapenemase VIM-2, K. pneumoniae expressing the class A carbapenemase KPC-2 and the class B carbapenemase VIM-4, and S. aureus producing the Class A penicillinase PC-1. The assay was conducted in Cation Adjusted Mueller Hinton Broth (CAMHB, BD #212322, BD Diagnostic Systems, Sparks, Md.). Bacteria strains were grown for 3-5 hours in CAMBH broth. Test compounds (Examples 1-30) were added to a microtiter plate in 2-fold serial dilutions in CAMHB in a final concentration range of 32 μg/mL to 0.25 μg/ml. An overlay of CAMHB containing a Beta-lactam was added to the compounds at a final static concentration of 4 μg/ml. […] In addition to the titration of test compounds the MICs of a panel of control beta-lactams is also tested to ensure the strains are behaving consistently from test to test. Once the test compound and antibiotics are added the plates can be inoculated according to CLSI broth microdilution method. After inoculation the plates are incubated for 16-20 hours at 37° C. then the Minimal Inhibitory Concentration (MIC) of the test compound is determined visually.
(§5) Using the methodology described above, examples of the current invention were evaluated for their ability to inhibit the growth of β-lactamase-producing bacteria in the presence of a β-lactam antibiotic.
(§6) Using the methodology described above in EXAMPLE III, exemplary compounds for Formula I or Formula Ia were evaluated for their ability to inhibit the growth of β-lactamase producing bacteria in the presence of a β-lactam antibiotic.

[4] = molecular target: T3, OXA-1 β-lactamase (Class D oxacillinase) (Escherichia coli, UniProt P13661); experiment: β-Lactamase inhibition, OXA-1; type: biochemical; conditions: nitrocefin 100 μM, 486 nm; 15 min preincubation at 37° C., PBS pH 7.4
T3 construct: made in house; host or cells: E. coli BL21(DE3)
Protocol: as §1, §2, §3

[5] = tested on: K. pneumoniae 156319 expressing KPC-3; experiment: Broth microdilution MIC, K. pneumoniae 156319 KPC-3; type: cell-based; conditions: fixed 4 μg/mL meropenem; CAMHB, 16-20 hours at 37° C.
Source text: as §4, §5, §6

[6] = tested on: E. cloacae 144200 expressing Class C P99 AmpC; experiment: Broth microdilution MIC, E. cloacae 144200 p99 AmpC; type: cell-based; conditions: fixed 4 μg/mL ceftazidime; CAMHB, 16-20 hours at 37° C.
Source text: as §4, §5, §6

[7] = molecular target: T4, p99 AmpC β-lactamase (Class C) (Enterobacter cloacae, UniProt P05364); experiment: β-Lactamase inhibition, p99 AmpC; type: biochemical
T4 construct: made in house; host or cells: E. coli BL21(DE3)
Protocol: as §1, §2, §3

[8] = tested on: K. pneumoniae A-1797 expressing KPC-2 and VIM-4; experiment: Broth microdilution MIC, K. pneumoniae A-1797 KPC-2/VIM-4; type: cell-based; conditions: fixed 4 μg/mL meropenem; CAMHB, 16-20 hours at 37° C.
Source text: as §4, §5, §6

[9] = tested on: E. coli ESBL4 expressing CTX-M-15; experiment: Broth microdilution MIC, E. coli ESBL4 CTX-M-15; type: cell-based; conditions: fixed 4 μg/mL ceftazidime; CAMHB, 16-20 hours at 37° C.
Source text: as §4, §5, §6

[10] = tested on: P. aeruginosa Ps296 expressing VIM-2; experiment: Broth microdilution MIC, P. aeruginosa Ps296 VIM-2; type: cell-based; conditions: fixed 4 μg/mL meropenem; CAMHB, 16-20 hours at 37° C.
Source text: as §4, §5, §6

[11] = molecular target: T5, VIM-2 metallo-β-lactamase (Class B) (Pseudomonas aeruginosa, UniProt Q9K2N0); experiment: β-Lactamase inhibition, VIM-2; type: biochemical; conditions: nitrocefin 100 μM, 486 nm; 15 min preincubation at 37° C., PBS pH 7.4
T5 construct: made in house; host or cells: E. coli BL21(DE3)
Protocol: For Vim-2 metallo β-lactamase, the procedure was identical with the following exceptions, first the protein was not pH adjusted to pH 5 with 50 mM sodium acetate, second, the chromatography step was changed to a 5 ml Q sepharose anion exchange column pre-equilibrated with 50 mM Hepes pH 7.5, and elution of the protein was achieved by a linear gradient of NaCl (0-600 mM). Finally, the VIM-2 purification required a second run (3rd step) on the Q sepharose anion exchange column to achieve acceptable purity (>90%).
as §2, §3

T4 sequence (P05364 21-381): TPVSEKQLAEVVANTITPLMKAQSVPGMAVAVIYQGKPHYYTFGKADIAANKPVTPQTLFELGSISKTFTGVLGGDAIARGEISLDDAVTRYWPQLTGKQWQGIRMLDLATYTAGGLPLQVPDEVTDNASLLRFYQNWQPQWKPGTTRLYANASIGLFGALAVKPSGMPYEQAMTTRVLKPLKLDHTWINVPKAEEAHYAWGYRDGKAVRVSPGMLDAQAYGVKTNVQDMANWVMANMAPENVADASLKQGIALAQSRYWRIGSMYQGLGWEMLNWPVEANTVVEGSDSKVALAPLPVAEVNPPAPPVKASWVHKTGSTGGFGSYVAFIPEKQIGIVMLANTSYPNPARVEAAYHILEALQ
T3 sequence (P13661 26-276): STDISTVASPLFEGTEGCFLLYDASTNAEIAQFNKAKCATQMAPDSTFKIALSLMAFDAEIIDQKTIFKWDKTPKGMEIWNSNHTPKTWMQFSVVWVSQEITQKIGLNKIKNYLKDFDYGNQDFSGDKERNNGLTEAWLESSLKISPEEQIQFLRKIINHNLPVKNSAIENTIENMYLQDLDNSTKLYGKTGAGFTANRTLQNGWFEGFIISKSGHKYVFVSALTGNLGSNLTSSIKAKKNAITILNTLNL
T2 sequence (Q9F663 25-293, looked up): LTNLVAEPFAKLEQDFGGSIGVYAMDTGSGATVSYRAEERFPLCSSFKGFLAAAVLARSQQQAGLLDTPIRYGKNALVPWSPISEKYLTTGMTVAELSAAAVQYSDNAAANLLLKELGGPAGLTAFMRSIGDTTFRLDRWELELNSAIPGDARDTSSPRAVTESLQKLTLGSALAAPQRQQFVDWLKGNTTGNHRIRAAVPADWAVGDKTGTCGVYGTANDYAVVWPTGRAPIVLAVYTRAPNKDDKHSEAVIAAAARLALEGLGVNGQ
T1 sequence (P0A3M1 22-286): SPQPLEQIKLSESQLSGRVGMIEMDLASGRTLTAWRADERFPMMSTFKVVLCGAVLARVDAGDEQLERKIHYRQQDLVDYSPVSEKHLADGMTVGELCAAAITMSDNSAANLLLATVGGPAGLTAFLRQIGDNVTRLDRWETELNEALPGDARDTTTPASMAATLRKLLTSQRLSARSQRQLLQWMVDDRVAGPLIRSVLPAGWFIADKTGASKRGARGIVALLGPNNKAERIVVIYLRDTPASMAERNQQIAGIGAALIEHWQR

SMILES	IC50 [1] [nM]	IC50 [2] [nM]	MIC of example compound in presence of fixed β-lactam: Fixed Pip, S. aureus MSSA-7 PC-1 [3]	IC50 [4] [nM]	MIC of example compound in presence of fixed β-lactam: Fixed Mero, K. P. 156319 KPC-3 [5]	MIC of example compound in presence of fixed β-lactam: Fixed CAZ, E. cl. 144200 p99 AmpC [6]	IC50 [7] [nM]	MIC of example compound in presence of fixed β-lactam: Fixed Mero, K. P. A-1797 KPC-2 VIM-4 [8]	MIC of example compound in presence of fixed β-lactam: Fixed CAZ, E. coli ESBL4 CTX-M-15 [9]	MIC of example compound in presence of fixed β-lactam: Fixed Mero, P. aerug. Ps296 VIM-2 [10]	IC50 [11] [nM]
NCC1CCN(CC(=O)N[C@H]2Cc3cccc(C(=O)O)c3OB2O)CC1 [Example 5, 3-[2-(4-Aminomethyl-piperidin-1-yl)-acetylamino]-2-hydroxy-3,4-dihydro-2H-benzo[e][1,2]oxaborinine-8-carboxylic acid]	1000 to 10000	< 100	B (the MIC in the presence of between 8 and 32 μg/mL of a β-lactamase inhibitor)	< 100	C (the MIC in the presence of <4 μg/mL of a β-lactamase inhibitor)	C (the MIC in the presence of <4 μg/mL of a β-lactamase inhibitor)	< 100	C (the MIC in the presence of <4 μg/mL of a β-lactamase inhibitor)	C (the MIC in the presence of <4 μg/mL of a β-lactamase inhibitor)	B (the MIC in the presence of between 8 and 32 μg/mL of a β-lactamase inhibitor)	100 to 1000
N[C@@H]1CCN(CC(=O)N[C@H]2Cc3cccc(C(=O)O)c3OB2O)C1 [Example 6, 3-[2-(R-3-Amino-pyrrolidin-1-yl)-acetylamino]-2-hydroxy-3,4-dihydro-2H-benzo[e][1,2]oxaborinine-8-carboxylic acid]	< 100	100 to 1000	A (an MIC of the fixed β-lactam antibiotic in the presence of >32 μg/mL of a β-lactamase inhibitor)	100 to 1000	C (the MIC in the presence of <4 μg/mL of a β-lactamase inhibitor)	C (the MIC in the presence of <4 μg/mL of a β-lactamase inhibitor)	< 100	B (the MIC in the presence of between 8 and 32 μg/mL of a β-lactamase inhibitor)	C (the MIC in the presence of <4 μg/mL of a β-lactamase inhibitor)	B (the MIC in the presence of between 8 and 32 μg/mL of a β-lactamase inhibitor)	1000 to 10000
N[C@H]1CCN(CC(=O)N[C@H]2Cc3cccc(C(=O)O)c3OB2O)C1 [Example 7, 3-[2-(S-3-Amino-pyrrolidin-1-yl)-acetylamino]-2-hydroxy-3,4-dihydro-2H-benzo[e][1,2]oxaborinine-8-carboxylic acid]	< 100	100 to 1000	C (the MIC in the presence of <4 μg/mL of a β-lactamase inhibitor)	100 to 1000	C (the MIC in the presence of <4 μg/mL of a β-lactamase inhibitor)	C (the MIC in the presence of <4 μg/mL of a β-lactamase inhibitor)	< 100	A (an MIC of the fixed β-lactam antibiotic in the presence of >32 μg/mL of a β-lactamase inhibitor)	C (the MIC in the presence of <4 μg/mL of a β-lactamase inhibitor)	A (an MIC of the fixed β-lactam antibiotic in the presence of >32 μg/mL of a β-lactamase inhibitor)	1000 to 10000
O=C(CN1CCNCC1=O)N[C@H]1Cc2cccc(C(=O)O)c2OB1O [Example 8, 2-Hydroxy-3-[2-(2-oxo-piperazin-1-yl)-acetylamino]-3,4-dihydro-2H-benzo[e][1,2]oxaborinine-8-carboxylic acid]	10000 to 100000	100 to 1000	C (the MIC in the presence of <4 μg/mL of a β-lactamase inhibitor)	< 100	C (the MIC in the presence of <4 μg/mL of a β-lactamase inhibitor)	C (the MIC in the presence of <4 μg/mL of a β-lactamase inhibitor)	< 100	A (an MIC of the fixed β-lactam antibiotic in the presence of >32 μg/mL of a β-lactamase inhibitor)	C (the MIC in the presence of <4 μg/mL of a β-lactamase inhibitor)	A (an MIC of the fixed β-lactam antibiotic in the presence of >32 μg/mL of a β-lactamase inhibitor)	1000 to 10000
